Data as given in patent publication US5686424A, “2-oxoethyl derivatives as immunosuppressants” (Miles Inc., priority 1995, dated 1997).
Like-named read-outs stand apart in the source and are kept apart here.

Experiments:
human T-cells = assay: Suppression of Human T-Cell Proliferation Assay (PHA-stimulated, [3H]-thymidine incorporation); assay type: cell-based; details: TABLE 2
How it was run: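 Read-out is scintillation counting of [3H]-thymidine pulsed for the last 6 h of a 72 h, 37° C culture. Human T-cells, isolated from LeukoPaks by Lymphoprep and sheep-erythrocyte rosetting, were PHA-M activated (40 μg/ml stock) with compound dilutions added in duplicate wells.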

NF-AT = NF-AT Inhibition Assay Directed β-Galactosidase Expression in FGL-5 cells; assay type: cell-based; details: 50% inhibition of NF-AT directed β-galactosidase activity in FGL-5 cells stimulated with phorbol dibutyrate and ionomycin; TABLE 3
How it was run: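 FGL-5 Jurkat cells (3 million cells/ml) carry NF-AT-site-driven lacZ. They were stimulated with phorbol dibutyrate plus ionomycin and incubated with compound 16-18 h at 37 °C, in duplicate wells with matched ethanol or DMSO vehicle controls. β-Galactosidase was read as fluorescence from 4-methylumbelliferyl-β-D-galactoside cleavage, giving percent inhibition.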

[1] = read-out: concentrations that suppress the T-cell proliferative response by 50%
[2] = concentration inhibiting [3H]-thymidine incorporation of PHA-stimulated T-cells by 50%, 72 hours, read-out: IC50

SMILES | IC50 (human T-cells; [1]) | IC50 (human T-cells; [2]) | IC50 (NF-AT)
CC[C@H](C)[C@H](NC(=O)[C@@H]1CCCN1CC(=O)NC12CC3CC(CC(C3)C1)C2)C(=O)NCc1ccccc1 [Example 39, L-Isoleucine, N-[1-(2-Aminoadamant-1-yl-2-oxoethyl)-L-Prolyl] Benzylamide] | < 10 µM | 6 µM | 41 µM
CC[C@H](C)[C@H](NC(=O)[C@@H]1CCCN1CC(=O)C1CC2CC(C1C)C2(C)C)C(=O)NCc1ccccc1 (stereo partly drawn) [Example 41, L-Isoleucine, N-[1-[2-(2,6,6-Trimethyl-Bicyclo[3.1.1]hept-3-yl)-2-Oxoethyl]-L-Prolyl] Benzylamide] | < 10 µM | 6 µM | 13 µM
O=C(NCc1ccccc1)[C@H](COCc1ccccc1)NC(=O)[C@@H]1CCCN1CC(=O)C12CC3CC(CC(C3)C1)C2 [Example 62, L-Serine-(O-Benzyl Ether), N-[1-(2-Adamantan-1-yl-2-Oxoethyl)-L-Prolyl] Benzylamide] | < 10 µM | 4 µM | 13 µM
O=C(CC(NC(=O)[C@@H]1CCCN1CC(=O)C12CC3CC(CC(C3)C1)C2)c1ccccc1)NCc1ccccc1 (stereo partly drawn) [Example 63, L-β-Phenylalanine, N-[1-(2-Adamantan-1-yl-2-Oxoethyl)-L-Prolyl] Benzylamide] | < 10 µM | 6 µM | 20 µM
CC[C@H](C)[C@H](NC(=O)[C@@H]1CCCN1CC(=O)C12CC3CC(CC(C3)C1)C2)C(=O)N[C@H](C)c1ccccc1 [Example 66, L-Isoleucine, N-[1-(2-Adamantan-1-yl-2-Oxoethyl)-L-Prolyl] alpha-(R)-methylbenzylamide] | < 10 µM | 3 µM | 57 µM
CC[C@H](C)[C@H](NC(=O)[C@@H]1CCCN1CC(=O)NC1C2CC3CC(C2)CC1C3)C(=O)NCc1ccccc1 (stereo partly drawn) [Example 90, L-Isoleucine, N-[1-(Adamantan-2-ylcarbamoylmethyl)-L-Prolyl] Benzylamide] | < 10 µM | 6 µM | > 100 µM
CC[C@H](C)[C@H](NC(=O)[C@@H]1CCCN1CC(=O)O[C@H](c1ccccc1)C(C)C)C(=O)NCc1ccccc1 [Example 92, L-Isoleucine, N-[1-(2-(2-Methyl-1-(S)-Phenyl-1-Propoxy)-2-Oxoethyl)-L-Prolyl] Benzylamide] | < 10 µM | 6 µM | 44 µM
CC[C@H](C)[C@H](NC(=O)[C@@H]1CCCN1CC(=O)O[C@@H](c1ccccc1)C(C)C)C(=O)NCc1ccccc1 [Example 93, L-Isoleucine, N-[1-(2-(2-Methyl-1-(R)-Phenyl-1-Propoxy)-2-Oxoethyl)-L-Prolyl] Benzylamide] | < 10 µM | 6 µM | 19 µM
